{
  "source": "paper doi:10.1101/679977v1",
  "about": "(bioRxiv, 2019)",
  "assay_type_in_all_cases": "cell-based",
  "key": {"Beneficial strains": {"system": "Beneficial strains", "assay": "Geometric mean of MICs", "conditions": "geometric mean of MICs against beneficial strains; >128 counted as 256 μM"}, "E. coli": {"system": "E. coli", "assay": "Geometric mean of MICs, selectivity and targeting indices", "conditions": "for TI Beneficial strains (targeting index): GM(E. coli)/GM(beneficial strains); for TI Beneficial strains (targeting index) / TI Pathogenic strains (targeting index): smaller = greater specificity; for TI Pathogenic strains (targeting index): GM(E. coli)/GM(other pathogenic strains); for SI E. coli (selectivity index): MHC/GM (E. coli), MHC >128 counted as 256 μM, larger = greater cell selectivity; for TI All (TIall, targeting index): all strains, smaller = greater specificity for E. coli; for GM E. coli: geometric mean of MICs against the 6 E. coli strains, >128 counted as 256 μM"}, "E. coli ATCC25922": {"system": "E. coli ATCC25922", "assay": "Salt, serum, acid and alkaline sensitivity", "conditions": "for MIC, Control: absence of physiological salts, serum, acid and alkaline; for MIC, FeCl3: in presence of 4μM FeCl3 (final); for MIC, MgCl2: in presence of 1 mM MgCl2; for MIC, KCl: in presence of 4.5 mM KCl (final); for MIC, NaCl: in presence of 150 mM NaCl (final); for MIC, PH=2: peptide incubated at pH=2 for 4 h prior to MIC determination; for MIC, PH=4: peptide incubated at pH=4 for 4 h prior to MIC determination; for MIC, PH=10: peptide incubated at pH=10 for 4 h prior to MIC determination; for MIC, PH=12: peptide incubated at pH=12 for 4 h prior to MIC determination"}},
  "note": "Square brackets hold non-standard residues; d marks the D form. Peptide text beside a SMILES is read from it.",
  "data": [
    {"smiles": "CC[C@H](C)[C@H](NC(=O)CN)C(=O)NCC(=O)N[C@@H](C)C(=O)N[C@H](C(=O)N[C@@H](CC(C)C)C(=O)N[C@@H](CCCCN)C(=O)N[C@H](C(=O)N[C@@H](CC(C)C)C(=O)N[C@H](C(=O)N[C@H](C(=O)NCC(=O)N[C@@H](CC(C)C)C(=O)N1CCC[C@H]1C(=O)N[C@@H](C)C(=O)N[C@@H](CC(C)C)C(=O)N[C@H](C(=O)N[C@@H](CO)C(=O)N[C@@H](Cc1c[nH]c2ccccc12)C(=O)N[C@H](C(=O)N[C@@H](CCCCN)C(=O)N[C@@H](CCCNC(=N)N)C(=O)N[C@@H](CCCCN)C(=O)N[C@@H](CCCNC(=N)N)C(=O)N[C@@H](CCC(N)=O)C(=O)N[C@@H](CCC(N)=O)C(N)=O)[C@@H](C)CC)[C@@H](C)CC)[C@@H](C)O)[C@@H](C)O)C(C)C)C(C)C", "note": "[MLT, Melittin, reference compound]", "values": [
      {"measurement": "GM Beneficial strains", "setting": "Beneficial strains", "value": 2.245, "unit": "µM"},
      {"measurement": "TI Beneficial strains (targeting index)", "setting": "E. coli", "value": 1.122},
      {"measurement": "TI Pathogenic strains (targeting index)", "setting": "E. coli", "value": 0.630},
      {"measurement": "SI E. coli (selectivity index)", "setting": "E. coli", "value": 0.794},
      {"measurement": "TI All (TIall, targeting index)", "setting": "E. coli", "value": 0.876},
      {"measurement": "GM E. coli", "setting": "E. coli", "value": 2.520, "unit": "µM"}
    ]},
    {"smiles": "CC[C@H](C)[C@H](NC(=O)CNC(=O)[C@H]1CCCN1C(=O)[C@H](CCCCN)NC(=O)[C@H](Cc1c[nH]c2ccccc12)NC(=O)[C@@H](NC(=O)[C@@H](N)CCCCN)[C@@H](C)CC)C(=O)N[C@@H](CCCCN)C(=O)N[C@@H](CCCCN)C(=O)N[C@@H](Cc1c[nH]c2ccccc12)C(=O)O", "note": "[Peptide 1] (H-KIWK[dP]GIKKW-OH; N-terminus and C-terminus assumed)", "values": [
      {"measurement": "MIC, Control", "setting": "E. coli ATCC25922", "value": ">64", "unit": "µM"},
      {"measurement": "MIC, FeCl3", "setting": "E. coli ATCC25922", "value": ">64", "unit": "µM"},
      {"measurement": "MIC, MgCl2", "setting": "E. coli ATCC25922", "value": ">64", "unit": "µM"},
      {"measurement": "MIC, KCl", "setting": "E. coli ATCC25922", "value": ">64", "unit": "µM"},
      {"measurement": "MIC, NaCl", "setting": "E. coli ATCC25922", "value": ">64", "unit": "µM"},
      {"measurement": "MIC, PH=2", "setting": "E. coli ATCC25922", "value": ">64", "unit": "µM"},
      {"measurement": "MIC, PH=4", "setting": "E. coli ATCC25922", "value": ">64", "unit": "µM"},
      {"measurement": "MIC, PH=10", "setting": "E. coli ATCC25922", "value": ">64", "unit": "µM"},
      {"measurement": "MIC, PH=12", "setting": "E. coli ATCC25922", "value": ">64", "unit": "µM"},
      {"measurement": "GM Beneficial strains", "setting": "Beneficial strains", "value": 256.000, "unit": "µM"},
      {"measurement": "TI Beneficial strains (targeting index)", "setting": "E. coli", "value": 1.000},
      {"measurement": "TI Pathogenic strains (targeting index)", "setting": "E. coli", "value": 1.000},
      {"measurement": "SI E. coli (selectivity index)", "setting": "E. coli", "value": 1.000},
      {"measurement": "TI All (TIall, targeting index)", "setting": "E. coli", "value": 1.000},
      {"measurement": "GM E. coli", "setting": "E. coli", "value": 256.000, "unit": "µM"}
    ]},
    {"smiles": "CC[C@H](C)[C@H](NC(=O)CNC(=O)[C@H]1CCCN1C(=O)[C@H](CCCCN)NC(=O)[C@H](Cc1c[nH]c2ccccc12)NC(=O)[C@@H](NC(=O)[C@H](CCCCN)NC(=O)[C@H](CCCCN)NC(=O)[C@@H](N)Cc1c[nH]c2ccccc12)[C@@H](C)CC)C(=O)N[C@@H](CCCCN)C(=O)N[C@@H](CCCCN)C(=O)N[C@@H](Cc1c[nH]c2ccccc12)C(=O)N[C@H](C(=O)N[C@@H](CCCCN)C(=O)O)[C@@H](C)CC", "note": "[Peptide 2] (H-WKKIWK[dP]GIKKWIK-OH; N-terminus and C-terminus assumed)", "values": [
      {"measurement": "MIC, Control", "setting": "E. coli ATCC25922", "value": 16, "unit": "µM"},
      {"measurement": "MIC, FeCl3", "setting": "E. coli ATCC25922", "value": 16, "unit": "µM"},
      {"measurement": "MIC, MgCl2", "setting": "E. coli ATCC25922", "value": 32, "unit": "µM"},
      {"measurement": "MIC, KCl", "setting": "E. coli ATCC25922", "value": 16, "unit": "µM"},
      {"measurement": "MIC, NaCl", "setting": "E. coli ATCC25922", "value": ">64", "unit": "µM"},
      {"measurement": "MIC, PH=2", "setting": "E. coli ATCC25922", "value": 32, "unit": "µM"},
      {"measurement": "MIC, PH=4", "setting": "E. coli ATCC25922", "value": 16, "unit": "µM"},
      {"measurement": "MIC, PH=10", "setting": "E. coli ATCC25922", "value": 16, "unit": "µM"},
      {"measurement": "MIC, PH=12", "setting": "E. coli ATCC25922", "value": 32, "unit": "µM"},
      {"measurement": "GM Beneficial strains", "setting": "Beneficial strains", "value": 256.000, "unit": "µM"},
      {"measurement": "TI Beneficial strains (targeting index)", "setting": "E. coli", "value": 0.063},
      {"measurement": "TI Pathogenic strains (targeting index)", "setting": "E. coli", "value": 0.070},
      {"measurement": "SI E. coli (selectivity index)", "setting": "E. coli", "value": 16.000},
      {"measurement": "TI All (TIall, targeting index)", "setting": "E. coli", "value": 0.067},
      {"measurement": "GM E. coli", "setting": "E. coli", "value": 16.000, "unit": "µM"}
    ]},
    {"smiles": "CC[C@H](C)[C@H](NC(=O)CNC(=O)[C@H]1CCCN1C(=O)[C@H](CCCCN)NC(=O)[C@H](Cc1c[nH]c2ccccc12)NC(=O)[C@@H](NC(=O)[C@H](CCCCN)NC(=O)[C@H](CCCCN)NC(=O)[C@H](Cc1c[nH]c2ccccc12)NC(=O)[C@@H](NC(=O)[C@@H](N)CCCCN)[C@@H](C)CC)[C@@H](C)CC)C(=O)N[C@@H](CCCCN)C(=O)N[C@@H](CCCCN)C(=O)N[C@@H](Cc1c[nH]c2ccccc12)C(=O)N[C@H](C(=O)N[C@@H](CCCCN)C(=O)N[C@@H](CCCCN)C(=O)N[C@@H](Cc1c[nH]c2ccccc12)C(=O)O)[C@@H](C)CC", "note": "[Peptide 3] (H-KIWKKIWK[dP]GIKKWIKKW-OH; N-terminus and C-terminus assumed)", "values": [
      {"measurement": "MIC, Control", "setting": "E. coli ATCC25922", "value": 4, "unit": "µM"},
      {"measurement": "MIC, FeCl3", "setting": "E. coli ATCC25922", "value": 4, "unit": "µM"},
      {"measurement": "MIC, MgCl2", "setting": "E. coli ATCC25922", "value": 8, "unit": "µM"},
      {"measurement": "MIC, KCl", "setting": "E. coli ATCC25922", "value": 4, "unit": "µM"},
      {"measurement": "MIC, NaCl", "setting": "E. coli ATCC25922", "value": 16, "unit": "µM"},
      {"measurement": "MIC, PH=2", "setting": "E. coli ATCC25922", "value": 4, "unit": "µM"},
      {"measurement": "MIC, PH=4", "setting": "E. coli ATCC25922", "value": 4, "unit": "µM"},
      {"measurement": "MIC, PH=10", "setting": "E. coli ATCC25922", "value": 4, "unit": "µM"},
      {"measurement": "MIC, PH=12", "setting": "E. coli ATCC25922", "value": 4, "unit": "µM"},
      {"measurement": "GM Beneficial strains", "setting": "Beneficial strains", "value": 256.000, "unit": "µM"},
      {"measurement": "TI Beneficial strains (targeting index)", "setting": "E. coli", "value": 0.011},
      {"measurement": "TI Pathogenic strains (targeting index)", "setting": "E. coli", "value": 0.079},
      {"measurement": "SI E. coli (selectivity index)", "setting": "E. coli", "value": 90.523},
      {"measurement": "GM E. coli", "setting": "E. coli", "value": 2.828, "unit": "µM"}
    ]}
  ]
}
